Biological target: ROCK2 (Homo sapiens, UniProt O75116)
Assay: ROCK2 assay (Caliper LABCHIP peptide phosphorylation, kinase inhibition)
Format: biochemical
Conditions: 5 μM ATP, 1.5 μM peptide substrate
Protocol: The effectiveness of compounds of the present invention as ROCK inhibitors can be determined in a 30 μL assay containing 20 mM HEPES, pH 7.5, 20 mM MgCl2, 0.015% Brij-35, 4 mM DTT, 5 μM ATP and 1.5 μM peptide substrate (FITC-AHA-AKRRRLSSLRA-OH) (SEQ ID NO. 1). Compounds were dissolved in DMSO so that the final concentration of DMSO was <2%, and the reaction was initiated with Rho kinase variants. After incubation, the reaction was terminated by the addition of EDTA and the phosphorylated and non-phosphorylated peptides separated using a LABCHIP® 3000 Reader (Caliper Life Sciences). […] Compounds were tested in dose-response format, and the inhibition of kinase activity was calculated at each concentration of compound. The inhibition data were fit using a curve-fitting program to determine the IC50; i.e., the concentration of compound required to inhibit 50% of kinase activity.
Representative Examples were tested in the ROCK2 assay described above and found having ROCK2 inhibitory activity. The ranges of the ROCK2 IC50 values are as follows: ROCK2 IC50: ++++ (<10 nM) +++ (10-100 nM) ++ (100-500 nM) + (500-2000 nM)

Chain of ROCK2 (O75116 whole entry, species assumed): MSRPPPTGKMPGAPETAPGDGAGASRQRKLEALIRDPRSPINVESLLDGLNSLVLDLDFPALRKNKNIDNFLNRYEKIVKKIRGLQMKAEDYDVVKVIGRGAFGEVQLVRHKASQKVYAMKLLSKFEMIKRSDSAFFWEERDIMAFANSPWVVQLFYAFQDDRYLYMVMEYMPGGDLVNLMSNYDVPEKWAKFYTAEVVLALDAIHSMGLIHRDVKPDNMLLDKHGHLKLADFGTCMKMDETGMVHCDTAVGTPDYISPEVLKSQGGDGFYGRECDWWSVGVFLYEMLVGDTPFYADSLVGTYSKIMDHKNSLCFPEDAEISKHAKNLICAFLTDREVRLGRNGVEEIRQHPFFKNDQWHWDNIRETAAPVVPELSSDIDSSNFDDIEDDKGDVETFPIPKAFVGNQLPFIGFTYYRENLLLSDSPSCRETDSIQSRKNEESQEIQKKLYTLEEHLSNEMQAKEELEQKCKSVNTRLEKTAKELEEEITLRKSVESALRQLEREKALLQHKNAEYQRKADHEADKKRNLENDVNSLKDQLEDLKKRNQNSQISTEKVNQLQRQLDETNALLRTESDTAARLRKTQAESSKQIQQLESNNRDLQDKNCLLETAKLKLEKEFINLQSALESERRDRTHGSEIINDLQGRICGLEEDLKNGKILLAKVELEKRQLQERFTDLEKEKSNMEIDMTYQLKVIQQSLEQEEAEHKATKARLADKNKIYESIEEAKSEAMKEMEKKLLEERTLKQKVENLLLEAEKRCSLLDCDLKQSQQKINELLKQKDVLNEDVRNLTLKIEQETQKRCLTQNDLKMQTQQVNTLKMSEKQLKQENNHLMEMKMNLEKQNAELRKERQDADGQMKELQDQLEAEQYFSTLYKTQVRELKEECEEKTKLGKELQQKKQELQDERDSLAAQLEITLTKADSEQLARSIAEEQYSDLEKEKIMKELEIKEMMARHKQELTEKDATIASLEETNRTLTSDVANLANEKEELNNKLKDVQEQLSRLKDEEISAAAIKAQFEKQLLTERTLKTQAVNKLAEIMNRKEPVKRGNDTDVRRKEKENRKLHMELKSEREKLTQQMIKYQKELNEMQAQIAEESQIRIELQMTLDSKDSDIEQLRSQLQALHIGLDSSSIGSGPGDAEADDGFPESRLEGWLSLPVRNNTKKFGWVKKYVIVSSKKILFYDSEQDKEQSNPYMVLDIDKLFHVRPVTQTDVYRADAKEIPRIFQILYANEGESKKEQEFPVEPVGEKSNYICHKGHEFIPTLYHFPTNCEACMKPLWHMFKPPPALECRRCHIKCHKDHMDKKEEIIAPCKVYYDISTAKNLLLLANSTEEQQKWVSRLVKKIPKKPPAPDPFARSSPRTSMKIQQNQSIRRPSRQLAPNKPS

SMILES	IC50
O=C1C(c2ccc(-c3n[nH]c(=O)c4ccccc34)cc2)CCN1Cc1ccccc1 (centres unmarked) [Example 8, 4-[4-(1-benzyl-2-oxopyrrolidin-3-yl)phenyl]-1,2-dihydrophthalazin-1-one]	500 to 2000 nM
O=C1C(c2ccc(-c3n[nH]c(=O)c4ccccc34)cc2)CCN1c1ccccc1 (centres unmarked) [Example 9, 4-[4-(2-oxo-1-phenylpyrrolidin-3-yl)phenyl]-1,2-dihydrophthalazin-1-one]	100 to 500 nM
O=C1N(Cc2ccccc2)CCN1c1ccc(-c2n[nH]c(=O)c3ccccc23)cc1 [Example 10, 4-[4-(3-benzyl-2-oxoimidazolidin-1-yl)phenyl]-1,2-dihydrophthalazin-1-one]	10 to 100 nM
O=C1N(c2ccc(-c3n[nH]c(=O)c4ccccc34)cc2)CCN1c1cccnc1 [Example 11, 4-{4-[2-oxo-3-(pyridin-3-yl)imidazolidin-1-yl]phenyl}-1,2-dihydrophthalazin-1-one]	10 to 100 nM
O=C1N(c2ccc(-c3n[nH]c(=O)c4ccccc34)cc2)CCN1c1ccccn1 [Example 12, 4-{4-[2-oxo-3-(pyridin-2-yl)imidazolidin-1-yl]phenyl}-1,2-dihydrophthalazin-1-one]	10 to 100 nM
O=C1OC(Cc2ccccc2)CN1c1ccc(-c2n[nH]c(=O)c3ccccc23)cc1 (centres unmarked) [Example 13, 4-[4-(5-benzyl-2-oxo-1,3-oxazolidin-3-yl)phenyl]-1,2-dihydrophthalazin-1-one]	10 to 100 nM
O=C1OCC(c2ccccc2)N1c1ccc(-c2n[nH]c(=O)c3ccccc23)cc1 (centres unmarked) [Example 14, 4-[4-(2-oxo-4-phenyl-1,3-oxazolidin-3-yl)phenyl]-1,2-dihydrophthalazin-1-one]	100 to 500 nM
O=C1OC(c2ccccc2)CN1c1ccc(-c2n[nH]c(=O)c3ccccc23)cc1 (centres unmarked) [Example 15, 4-[4-(2-oxo-5-phenyl-1,3-oxazolidin-3-yl)phenyl]-1,2-dihydrophthalazin-1-one]	10 to 100 nM
CC(C)(C)OC(=O)NCC1CN(c2ccc(-c3n[nH]c(=O)c4ccccc34)cc2)C(=O)O1 (centres unmarked) [Example 16, tert-butyl N-({2-oxo-3-[4-(4-oxo-3,4-dihydrophthalazin-1-yl)phenyl]-1,3-oxazolidin-5-yl}methyl)carbamate]	500 to 2000 nM
CCCC1CN(c2ccc(-c3n[nH]c(=O)c4ccccc34)cc2)C(=O)O1 (centres unmarked) [Example 17, 4-[4-(2-oxo-5-propyl-1,3-oxazolidin-3-yl)phenyl]-1,2-dihydrophthalazin-1-one]	100 to 500 nM
O=C(NCC1CN(c2ccc(-c3n[nH]c(=O)c4ccccc34)cc2)C(=O)O1)c1ccccc1 (centres unmarked) [Example 18, N-({2-oxo-3-[4-(4-oxo-3,4-dihydrophthalazin-1-yl)phenyl]-1,3-oxazolidin-5-yl}methyl)benzamide]	100 to 500 nM
O=C1OC(c2ccc(F)cc2)CN1c1ccc(-c2n[nH]c(=O)c3ccccc23)cc1 (centres unmarked) [Example 19, 4-{4-[5-(4-fluorophenyl)-2-oxo-1,3-oxazolidin-3-yl]phenyl}-1,2-dihydrophthalazin-1-one]	500 to 2000 nM
CS(=O)(=O)c1ccc(CC2CN(c3ccc(-c4n[nH]c(=O)c5ccccc45)cc3)C(=O)O2)cc1 (centres unmarked) [Example 20, 4-(4-{5-[(4-methanesulfonylphenyl)methyl]-2-oxo-1,3-oxazolidin-3-yl}phenyl)-1,2-dihydrophthalazin-1-one]	100 to 500 nM
O=C1OC2CCCCC2N1c1ccc(-c2n[nH]c(=O)c3ccccc23)cc1 (centres unmarked) [Example 21, 4-[4-(2-oxo-octahydro-1,3-benzoxazol-3-yl)phenyl]-1,2-dihydrophthalazin-1-one]	500 to 2000 nM
O=C1OC(C(O)(c2ccccc2)C(F)(F)F)CN1c1ccc(-c2n[nH]c(=O)c3ccccc23)cc1 (centres unmarked) [Example 22, 4-{4-[2-oxo-5-(2,2,2-trifluoro-1-hydroxy-1-phenylethyl)-1,3-oxazolidin-3-yl]phenyl}-1,2-dihydrophthalazin-1-one]	500 to 2000 nM
C[C@@H]1OC(=O)N(c2ccc(-c3n[nH]c(=O)c4ccccc34)cc2)[C@@H]1c1ccccc1 [Example 23, 4-{4-[(4R,5S)-5-methyl-2-oxo-4-phenyl-1,3-oxazolidin-3-yl]phenyl}-1,2-dihydrophthalazin-1-one]	500 to 2000 nM
O=C1C(N2CCOCC2)CCN1c1ccc(-c2n[nH]c(=O)c3ccccc23)cc1 (centres unmarked) [Example 24, 4-{4-[3-(morpholin-4-yl)-2-oxopyrrolidin-1-yl]phenyl}-1,2-dihydrophthalazin-1-one]	500 to 2000 nM
O=C1C(NCc2ccccc2)CCN1c1ccc(-c2n[nH]c(=O)c3ccccc23)cc1 (centres unmarked) [Example 25, 4-{4-[3-(benzylamino)-2-oxopyrrolidin-1-yl]phenyl}-1,2-dihydrophthalazin-1-one]	500 to 2000 nM

SMILES	IC50
COc1cccc(NC2CCN(c3ccc(-c4n[nH]c(=O)c5ccccc45)cc3)C2=O)c1 (centres unmarked) [Example 26, 4-(4-{3-[(3-methoxyphenyl)amino]-2-oxopyrrolidin-1-yl}phenyl)-1,2-dihydrophthalazin-1-one]	10 to 100 nM
O=C1C(Nc2ccccc2)CCN1c1ccc(-c2n[nH]c(=O)c3ccccc23)cc1 (centres unmarked) [Example 27, 4-{4-[2-oxo-3-(phenylamino)pyrrolidin-1-yl]phenyl}-1,2-dihydrophthalazin-1-one]	10 to 100 nM
O=C1C(NC2CCCC2)CCN1c1ccc(-c2n[nH]c(=O)c3ccccc23)cc1 (centres unmarked) [Example 28, 4-{4-[3-(cyclopentylamino)-2-oxopyrrolidin-1-yl]phenyl}-1,2-dihydrophthalazin-1-one]	500 to 2000 nM
O=C1C(NC2Cc3ccccc3C2)CCN1c1ccc(-c2n[nH]c(=O)c3ccccc23)cc1 (centres unmarked) [Example 29, 4-(4-{3-[(2,3-dihydro-1H-inden-2-yl)amino]-2-oxopyrrolidin-1-yl}phenyl)-1,2-dihydrophthalazin-1-one]	500 to 2000 nM
CCc1ccccc1NC1CCN(c2ccc(-c3n[nH]c(=O)c4ccccc34)cc2)C1=O (centres unmarked) [Example 31, 4-(4-{3-[(2-ethylphenyl)amino]-2-oxopyrrolidin-1-yl}phenyl)-1,2-dihydrophthalazin-1-one]	10 to 100 nM
COc1cc(F)cc(NC2CCN(c3ccc(-c4n[nH]c(=O)c5ccccc45)cc3)C2=O)c1 (centres unmarked) [Example 32, 4-(4-{3-[(3-fluoro-5-methoxyphenyl)amino]-2-oxopyrrolidin-1-yl}phenyl)-1,2-dihydrophthalazin-1-one]	10 to 100 nM
O=C1C(Nc2ccc3c(c2)OCO3)CCN1c1ccc(-c2n[nH]c(=O)c3ccccc23)cc1 (centres unmarked) [Example 33, 4-(4-{3-[(2H-1,3-benzodioxol-5-yl)amino]-2-oxopyrrolidin-1-yl}phenyl)-1,2-dihydrophthalazin-1-one]	10 to 100 nM
O=C1C(Nc2ccc3c(c2)OCCCO3)CCN1c1ccc(-c2n[nH]c(=O)c3ccccc23)cc1 (centres unmarked) [Example 34, 4-(4-{3-[(3,4-dihydro-2H-1,5-benzodioxepin-7-yl)amino]-2-oxopyrrolidin-1-yl}phenyl)-1,2-dihydrophthalazin-1-one]	10 to 100 nM
Cn1nc(C2CC2)cc1NC1CCN(c2ccc(-c3n[nH]c(=O)c4ccccc34)cc2)C1=O (centres unmarked) [Example 35, 4-(4-{3-[(3-cyclopropyl-1-methyl-1H-pyrazol-5-yl)amino]-2-oxopyrrolidin-1-yl}phenyl)-1,2-dihydrophthalazin-1-one]	10 to 100 nM
Cc1[nH]nc(C2CC2)c1NC1CCN(c2ccc(-c3n[nH]c(=O)c4ccccc34)cc2)C1=O (centres unmarked) [Example 36, 4-(4-{3-[(3-cyclopropyl-5-methyl-1H-pyrazol-4-yl)amino]-2-oxopyrrolidin-1-yl}phenyl)-1,2-dihydrophthalazin-1-one]	10 to 100 nM
COc1ccc(F)c(NC2CCN(c3ccc(-c4n[nH]c(=O)c5ccccc45)cc3)C2=O)c1 (centres unmarked) [Example 37, 4-(4-{3-[(2-fluoro-5-methoxyphenyl)amino]-2-oxopyrrolidin-1-yl}phenyl)-1,2-dihydrophthalazin-1-one]	10 to 100 nM
COc1cc(C)cc(NC2CCN(c3ccc(-c4n[nH]c(=O)c5ccccc45)cc3)C2=O)c1 (centres unmarked) [Example 38, 4-(4-{3-[(3-methoxy-5-methylphenyl)amino]-2-oxopyrrolidin-1-yl}phenyl)-1,2-dihydrophthalazin-1-one]	10 to 100 nM
O=C1C(Nc2cnn(-c3ccccc3)c2)CCN1c1ccc(-c2n[nH]c(=O)c3ccccc23)cc1 (centres unmarked) [Example 39, 4-(4-{2-oxo-3-[(1-phenyl-1H-pyrazol-4-yl)amino]pyrrolidin-1-yl}phenyl)-1,2-dihydrophthalazin-1-one]	10 to 100 nM
COc1c(F)ccc(NC2CCN(c3ccc(-c4n[nH]c(=O)c5ccccc45)cc3)C2=O)c1F (centres unmarked) [Example 40, 4-(4-{3-[(2,4-difluoro-3-methoxyphenyl)amino]-2-oxopyrrolidin-1-yl}phenyl)-1,2-dihydrophthalazin-1-one]	10 to 100 nM
O=c1[nH]nc(-c2ccc(-n3ncn(Cc4ccccc4)c3=O)cc2)c2ccccc12 [Example 41, 4-[4-(4-benzyl-5-oxo-4,5-dihydro-1H-1,2,4-triazol-1-yl)phenyl]-1,2-dihydrophthalazin-1-one]	100 to 500 nM
COc1cc(NC2CCN(c3ccc(-c4n[nH]c(=O)c5ccccc45)cc3)C2=O)ccc1F (centres unmarked) [Example 42, 4-(4-{3-[(4-fluoro-3-methoxyphenyl)amino]-2-oxopyrrolidin-1-yl}phenyl)-1,2-dihydrophthalazin-1-one]	10 to 100 nM
CCOc1cccc(NC2CCN(c3ccc(-c4n[nH]c(=O)c5ccccc45)cc3)C2=O)c1 (centres unmarked) [Example 43, 4-(4-{3-[(3-ethoxyphenyl)amino]-2-oxopyrrolidin-1-yl}phenyl)-1,2-dihydrophthalazin-1-one]	10 to 100 nM

Reference: patent publication US10730858B2, “Lactam, cyclic urea and carbamate, and triazolone derivatives as potent and selective rock inhibitors” (BRISTOL-MYERS SQUIBB COMPANY, priority 2016, dated 2020)
